Measurements: ChEMBL document CHEMBL1201862, “PubChem BioAssay data set” (2004)
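Growth conditions: 96-well plates. Treatment: test compound, 48 hours, 5 concentrations. Analysis: linear interpolation between bracketing concentrations; unreached endpoints set to highest concentration. At the GI50, growth is halved.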 Activity calls are given as the source filed them. No stated cut-off is given here; in the data, active = GI50 up to about 1.1 µM and inactive = higher.

Legend:
Test in all cases: NCI tumour cell line growth inhibition, 48 h
IGROV-1 = system: IGROV-1
HOP-18 = system: HOP-18
OVCAR-8 = system: OVCAR-8
M14 = system: M14
A498 = system: A498
SN12C = system: SN12C
NCI-H522 = system: NCI-H522
HCC 2998 = system: HCC 2998
UACC-62 = system: UACC-62
MOLT-4 = system: MOLT-4
RPMI-8226 = system: RPMI-8226
SW-620 = system: SW-620
Malme-3M = system: Malme-3M
K562 = system: K562
DMS-273 = system: DMS-273
OVCAR-5 = system: OVCAR-5
SK-MEL-28 = system: SK-MEL-28
786-0 = system: 786-0
NCI-H23 = system: NCI-H23
A549 = system: A549
UO-31 = system: UO-31
CAKI-1 = system: CAKI-1
HCT-15 = system: HCT-15
DLD-1 = system: DLD-1
HCT-116 = system: HCT-116
SK-OV-3 = system: SK-OV-3
SF-295 = system: SF-295
SNB-19 = system: SNB-19
SF-539 = system: SF-539
TK-10 = system: TK-10
OVCAR-3 = system: OVCAR-3
KM12 = system: KM12
LXFL 529 = system: LXFL 529
OVCAR-4 = system: OVCAR-4
CCRF-CEM = system: CCRF-CEM
U-251 = system: U-251
SNB-75 = system: SNB-75
RXF 393 = system: RXF 393
COLO 205 = system: COLO 205
KM-20L2 = system: KM-20L2
SK-MEL-2 = system: SK-MEL-2
HOP-62 = system: HOP-62
SK-MEL-5 = system: SK-MEL-5
DMS-114 = system: DMS-114
NCI-H460 = system: NCI-H460
LOX IMVI = system: LOX IMVI
HT-29 = system: HT-29
HOP-92 = system: HOP-92
SF-268 = system: SF-268
ACHN = system: ACHN
HL-60 = system: HL-60
DU-145 = system: DU-145
MCF7 = system: MCF7
BT-549 = system: BT-549
UACC-257 = system: UACC-257
T47D = system: T47D
MDA-N = system: MDA-N
NCI/ADR-RES = system: NCI/ADR-RES
SR = system: SR
NCI-H226 = system: NCI-H226
EKVX = system: EKVX
MDA-MB-435 = system: MDA-MB-435
PC-3 = system: PC-3
MDA-MB-231 = system: MDA-MB-231
Hs-578T = system: Hs-578T

Sc1ncnc2c1ncn2C1CCCO1 (centres undefined)
GI50 (IGROV-1): > 100 µM (inactive)
GI50 (HOP-18): > 100 µM (inactive)
GI50 (OVCAR-8): > 100 µM (inactive)
GI50 (M14): 43.3 µM (inactive)
GI50 (A498): > 100 µM (inactive)
GI50 (SN12C): > 100 µM (inactive)
GI50 (NCI-H522): 64.6 µM (inactive)
GI50 (HCC 2998): > 100 µM (inactive)
GI50 (UACC-62): 76.2 µM (inactive)
GI50 (MOLT-4): > 100 µM (inactive)
GI50 (RPMI-8226): 99.5 µM (inactive)
GI50 (SW-620): > 100 µM (inactive)
GI50 (Malme-3M): > 100 µM (inactive)
GI50 (K562): 38.8 µM (inactive)
GI50 (DMS-273): 76.2 µM (inactive)
GI50 (OVCAR-5): > 100 µM (inactive)
GI50 (SK-MEL-28): > 100 µM (inactive)
GI50 (786-0): > 100 µM (inactive)
GI50 (NCI-H23): > 100 µM (inactive)
GI50 (A549): > 100 µM (inactive)
GI50 (UO-31): > 100 µM (inactive)
GI50 (CAKI-1): > 100 µM (inactive)
GI50 (HCT-15): > 100 µM
GI50 (DLD-1): 89.9 µM (inactive)
GI50 (HCT-116): 55.5 µM (inactive)
GI50 (SK-OV-3): 35.8 µM (inactive)
GI50 (SF-295): > 100 µM (inactive)
GI50 (SNB-19): > 100 µM (inactive)
GI50 (SF-539): > 100 µM (inactive)
GI50 (TK-10): 89.5 µM (inactive)
GI50 (OVCAR-3): 22.6 µM (inactive)
GI50 (KM12): > 100 µM (inactive)
GI50 (LXFL 529): > 100 µM (inactive)
GI50 (OVCAR-4): 51.1 µM (inactive)
GI50 (CCRF-CEM): > 100 µM (inactive)
GI50 (U-251): > 100 µM (inactive)
GI50 (SNB-75): 65.3 µM (inactive)
GI50 (RXF 393): > 100 µM (inactive)
GI50 (COLO 205): > 100 µM (inactive)
GI50 (KM-20L2): > 100 µM (inactive)
GI50 (SK-MEL-2): > 100 µM (inactive)
GI50 (HOP-62): 64.4 µM (inactive)
GI50 (SK-MEL-5): > 100 µM (inactive)
GI50 (DMS-114): 65.8 µM (inactive)
GI50 (NCI-H460): > 100 µM (inactive)
GI50 (LOX IMVI): 37.6 µM (inactive)
GI50 (HT-29): > 100 µM (inactive)
GI50 (HOP-92): 39.3 µM (inactive)
GI50 (SF-268): > 100 µM (inactive)
GI50 (ACHN): > 100 µM (inactive)
GI50 (HL-60): > 100 µM (inactive)

O=C(N/N=C/c1c(-c2ccccc2)no[n+]1[O-])N1CCOCC1
GI50 (IGROV-1): > 100 µM (inactive)
GI50 (DU-145): > 100 µM (inactive)
GI50 (OVCAR-8): > 100 µM (inactive)
GI50 (M14): > 100 µM (inactive)
GI50 (A498): > 100 µM (inactive)
GI50 (SN12C): > 100 µM (inactive)
GI50 (NCI-H522): > 100 µM (inactive)
GI50 (HCC 2998): > 100 µM (inactive)
GI50 (MCF7): > 100 µM (inactive)
GI50 (UACC-62): > 100 µM (inactive)
GI50 (BT-549): > 100 µM (inactive)
GI50 (MOLT-4): 26.3 µM (inactive)
GI50 (RPMI-8226): > 100 µM (inactive)
GI50 (SW-620): > 100 µM (inactive)
GI50 (Malme-3M): > 100 µM (inactive)
GI50 (K562): > 100 µM (inactive)
GI50 (UACC-257): > 100 µM (inactive)
GI50 (T47D): > 100 µM (inactive)
GI50 (OVCAR-5): > 100 µM (inactive)
GI50 (SK-MEL-28): > 100 µM (inactive)
GI50 (MDA-N): > 100 µM (inactive)
GI50 (786-0): > 100 µM (inactive)
GI50 (NCI/ADR-RES): > 100 µM (inactive)
GI50 (NCI-H23): > 100 µM (inactive)
GI50 (A549): > 100 µM (inactive)
GI50 (UO-31): > 100 µM (inactive)
GI50 (CAKI-1): > 100 µM (inactive)
GI50 (HCT-15): > 100 µM
GI50 (HCT-116): > 100 µM (inactive)
GI50 (SK-OV-3): > 100 µM (inactive)
GI50 (SF-295): > 100 µM (inactive)
GI50 (SNB-19): > 100 µM (inactive)
GI50 (SF-539): > 100 µM (inactive)
GI50 (TK-10): > 100 µM (inactive)
GI50 (SR): 0.264 µM (active)
GI50 (OVCAR-3): > 100 µM (inactive)
GI50 (NCI-H226): > 100 µM (inactive)
GI50 (KM12): > 100 µM (inactive)
GI50 (OVCAR-4): > 100 µM (inactive)
GI50 (EKVX): > 100 µM (inactive)
GI50 (CCRF-CEM): > 100 µM (inactive)
GI50 (U-251): > 100 µM (inactive)
GI50 (SNB-75): > 100 µM (inactive)
GI50 (RXF 393): > 100 µM (inactive)
GI50 (MDA-MB-435): > 100 µM (inactive)
GI50 (COLO 205): > 100 µM (inactive)
GI50 (SK-MEL-2): > 100 µM (inactive)
GI50 (HOP-62): > 100 µM (inactive)
GI50 (SK-MEL-5): > 100 µM (inactive)
GI50 (PC-3): > 100 µM (inactive)
GI50 (NCI-H460): > 100 µM (inactive)
GI50 (LOX IMVI): > 100 µM (inactive)
GI50 (HT-29): > 100 µM (inactive)
GI50 (HOP-92): > 100 µM (inactive)
GI50 (SF-268): > 100 µM (inactive)
GI50 (ACHN): > 100 µM (inactive)
GI50 (HL-60): 23.3 µM (inactive)
GI50 (MDA-MB-231): > 100 µM (inactive)
GI50 (Hs-578T): > 100 µM (inactive)

Cc1cc(S(=O)(=O)Nc2nnc3cc(C(F)(F)F)cc(C)n23)c(S)cc1Cl
GI50 (IGROV-1): > 100 µM (inactive)
GI50 (DU-145): > 100 µM (inactive)
GI50 (OVCAR-8): > 100 µM (inactive)
GI50 (M14): 77.3 µM (inactive)
GI50 (A498): 18.9 µM (inactive)
GI50 (SN12C): > 100 µM (inactive)
GI50 (NCI-H522): > 100 µM (inactive)
GI50 (HCC 2998): 33.7 µM (inactive)
GI50 (MCF7): > 31.6 µM (inactive)
GI50 (UACC-62): 56.4 µM (inactive)
GI50 (BT-549): > 35.2 µM (inactive)
GI50 (MOLT-4): > 100 µM (inactive)
GI50 (RPMI-8226): > 100 µM (inactive)
GI50 (SW-620): > 100 µM (inactive)
GI50 (Malme-3M): > 100 µM (inactive)
GI50 (K562): > 100 µM (inactive)
GI50 (UACC-257): > 100 µM (inactive)
GI50 (T47D): > 100 µM (inactive)
GI50 (OVCAR-5): > 84.9 µM (inactive)
GI50 (SK-MEL-28): > 100 µM (inactive)
GI50 (MDA-N): > 100 µM (inactive)
GI50 (786-0): > 80.5 µM (inactive)
GI50 (NCI/ADR-RES): 45.5 µM (inactive)
GI50 (NCI-H23): > 100 µM (inactive)
GI50 (A549): 21.3 µM (inactive)
GI50 (UO-31): 39.1 µM (inactive)
GI50 (CAKI-1): 97.5 µM (inactive)
GI50 (HCT-15): > 91.6 µM
GI50 (HCT-116): > 81.8 µM (inactive)
GI50 (SK-OV-3): 38.3 µM (inactive)
GI50 (SF-295): 55.1 µM (inactive)
GI50 (SNB-19): 27.5 µM (inactive)
GI50 (SF-539): 34.4 µM (inactive)
GI50 (TK-10): > 100 µM (inactive)
GI50 (SR): > 100 µM (inactive)
GI50 (OVCAR-3): 64.1 µM (inactive)
GI50 (NCI-H226): > 54.6 µM (inactive)
GI50 (KM12): 45.6 µM (inactive)
GI50 (OVCAR-4): > 100 µM (inactive)
GI50 (EKVX): > 100 µM (inactive)
GI50 (CCRF-CEM): > 100 µM (inactive)
GI50 (U-251): 29 µM (inactive)
GI50 (SNB-75): > 71.1 µM (inactive)
GI50 (RXF 393): > 100 µM (inactive)
GI50 (MDA-MB-435): > 65.8 µM (inactive)
GI50 (COLO 205): > 100 µM (inactive)
GI50 (SK-MEL-2): 30.7 µM (inactive)
GI50 (HOP-62): 35.2 µM (inactive)
GI50 (SK-MEL-5): 64.4 µM (inactive)
GI50 (PC-3): > 95.3 µM (inactive)
GI50 (NCI-H460): 19.5 µM (inactive)
GI50 (LOX IMVI): > 100 µM (inactive)
GI50 (HT-29): > 100 µM (inactive)
GI50 (HOP-92): > 76.9 µM (inactive)
GI50 (SF-268): > 100 µM (inactive)
GI50 (ACHN): > 100 µM (inactive)
GI50 (HL-60): > 100 µM (inactive)
GI50 (MDA-MB-231): > 83 µM (inactive)
GI50 (Hs-578T): > 72.4 µM (inactive)
